“Also recorded” adds a separate entry of the source. Counter-ions that a name gives are not always drawn.
Columns and labels:
IKKα/β = experiment: Immunoblot of phosphorylated IKKα/β in HEK293 cells; assay type: cell-based
Description: (§1) To measure endogenous level of several proteins in response to TPA induction and compound I, HEK293 cells were lysed with RIPA buffer (10 mM Tris-HCl pH 7.5, 1 mM EDTA, 0.1% sodium dodecyl sulfate, 0.1% deoxycholate, and protease inhibitor). Whole cell extracts were subjected to immunoblot analysis with the following antibodies: p65 (F-6), p50 (E-10), p52 (C-5), RelB (C-19), IκBα (C-21), PCNA (F-2) were obtained from Santa Cruz Biotechnology (Santa Cruz, Calif.). IKKα, IKKβ, IKKγ, phospho-IκBα, phospho-IKKα/β, phospho-IKKγ, pohospho-Stat3 (Tyr 705 and Ser 727), phospho-p65 (Ser536 and Ser276), phospho-p44/42, phospho-JNKs were purchased from Cell Signaling (Danvers, Mass.), and α-tubulin from Sigma (St. Louis, Mo.). Nuclear and cytoplasmic extracts were prepared with HEK293 cells by NE-PER Nuclear and Cytoplasmic Extraction Reagents (Pierce Biotechnology, Rockford, Ill.) according to the manufacturer's protocol.
(§2) To characterize the activity of compound I in targeting events upstream of NFκB, endogenous levels of kinases involved in NFκB activation were examined by immunoblot analysis. The well-established upstream regulators of NFκB activation are IKKα, IKKβ, and IκBα. […] Moreover, the phosphorylation of IκBα was inhibited even at 1.1 μM showing dose-dependent decrease by compound I pretreatment. […]

IKKγ = experiment: Immunoblot of phosphorylated IKKγ in HEK293 cells; assay type: cell-based; details: compound I pretreatment
Description: as §1, §2

VEGF promoter = VEGF promoter luciferase reporter assay in HEK293 cells; assay type: cell-based, human; details: TPA 10 ng/ml 18 hours
Description: All expression plasmids were transiently transfected into HEK293 cells in a 96-well plate (0.1 μg/well) by using Effectene transfection reagent (Qiagen, Valencia, Calif.) according to the manufacturer's manual. HEK293 cells were maintained in Dulbecco's modified Eagle medium (Sigma, St. Louis, Mo.) supplemented with 10% fetal bovine serum (Atlanta Biologicals, Lawrenceville, Ga.) and incubated at 37° C. in a 5% CO2 incubator. After 24 hrs incubation, the medium was changed to DMEM with 0.2% FBS, and the transfectants were exposed to various concentrations of compound I and TPA (10 ng/ml). Cells were lysed with passive lysis buffer and the luciferase assay was performed using the Firefly-Luciferase reporter assay system (Promega, Madison, Wis.) and MLX Luminometer (Dynex Technology, Chantilly, Va.).
Three different luciferase reporter genes, AP-1 reporter containing four times TRE consensus originated from GCN4 and SRE reporter purchased from Stratagene (La Jolla, Calif.) respectively are as described previously (Suzukawa et al., Environ. Health Perspect., 2002, 110, 865-70). […]
Inhibition of NFκB transactivation would be expected to result in suppressed expression of genes whose transcription depends on NFκB. Quantitative RT-PCR was used to measure endogenous levels of IL-6 mRNA, transcribed from a gene whose transcription depends on NFκB but not AP-1. […]

p65/p50 = experiment: Nuclear translocation of p65/p50, immunoblot of nuclear and cytoplasmic extracts; assay type: cell-based; details: compound I pretreatment, HEK293
Description: as §1
Nuclear translocation of endogenous p65/p50 and RelB/p52 heterodimers were monitored The activation of heterodimers p65/p50 and RelB/p52 occurs by distinct pathways dependent on IKKβ or IKKα catalytic activity. Repression of IKKβ would be expected to influence nuclear translocation of p65/p50 while repression of IKKα would influence processing of p100 to p52. […] However translocation of RelB is only dependent on IKKα for processing of its dimer partner p52 from p100. […]

JNK = experiment: Immunoblot of TPA-induced JNK phosphorylation; assay type: cell-based; details: 17.0 μM and 8.5 μM pretreatment
Description: as §1
The selectivity of compound I was evaluated by measuring phosphorylation of proteins involved in the AP-1 induction pathway. AP-1 dependent transcription can be activated by MAP Kinases JNK, ERK 1/2 (p44/42). […] At these concentrations compound I, in contrast, completely repressed major regulators in the NFκB activation pathway. JNKs are activated by a variety of environmental stresses responsible for AP-1 activation through c-Jun phosphorylation. […]

Structure (SMILES): Cc1cc(N)ccc1N=Nc1ccc(S(=O)(=O)CCOS(=O)(=O)O)cc1 [compound I, 2-(4-((4-amino-2-methylphenyl)diazenyl)phenylsulfonyl)ethyl hydrogen sulfate]
- TPA-induced phosphorylation of IKKα/β (IKKα/β; HEK293, compared with IκBα inhibition at 17.0 and 8.5 μM): reduces
- TNFα-induced phosphorylation of IKKα/β (IKKα/β; at 1 hour): inhibits
- Phosphorylation of IKKγ (IKKγ): did not change
- Luciferase activity driven by VEGF promoter (VEGF promoter): did not significantly affect
- TPA-induced nuclear translocation of p65 (RelA) (p65/p50): remarkably repressed; also recorded: interception
- TPA-induced phosphorylation of endogenous JNK (JNK): no repression
